# Counter-ions that a name gives are not always drawn.
# Target: T1, human GIRK1/4 channels (Homo sapiens, UniProt P48544+P48549)
# T1 construct: Full-length human GIRK1 cDNA was cloned from HuH cell- and HeLa cell-derived cDNA libraries; Full-length GIRK4 cDNA was amplified from a human heart cDNA library; expressed in transfected cells; host or cells: FLP-IN-CHO cells (Invitrogen)
# T1 sequence (P48549 1-501): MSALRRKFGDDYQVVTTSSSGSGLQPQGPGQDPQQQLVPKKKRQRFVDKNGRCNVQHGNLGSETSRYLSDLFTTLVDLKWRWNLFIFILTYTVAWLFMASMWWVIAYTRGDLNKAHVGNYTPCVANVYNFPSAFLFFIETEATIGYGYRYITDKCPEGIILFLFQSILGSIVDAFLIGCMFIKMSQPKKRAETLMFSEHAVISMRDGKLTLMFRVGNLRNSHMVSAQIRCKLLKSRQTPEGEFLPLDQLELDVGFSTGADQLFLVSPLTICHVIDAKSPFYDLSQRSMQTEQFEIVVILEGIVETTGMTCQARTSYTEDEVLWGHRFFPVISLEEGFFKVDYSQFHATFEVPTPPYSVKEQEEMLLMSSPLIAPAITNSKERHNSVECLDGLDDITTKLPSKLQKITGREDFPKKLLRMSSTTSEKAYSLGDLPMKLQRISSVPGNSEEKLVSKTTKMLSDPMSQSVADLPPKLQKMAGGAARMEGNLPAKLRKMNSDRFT
# T1 sequence (P48544 1-419): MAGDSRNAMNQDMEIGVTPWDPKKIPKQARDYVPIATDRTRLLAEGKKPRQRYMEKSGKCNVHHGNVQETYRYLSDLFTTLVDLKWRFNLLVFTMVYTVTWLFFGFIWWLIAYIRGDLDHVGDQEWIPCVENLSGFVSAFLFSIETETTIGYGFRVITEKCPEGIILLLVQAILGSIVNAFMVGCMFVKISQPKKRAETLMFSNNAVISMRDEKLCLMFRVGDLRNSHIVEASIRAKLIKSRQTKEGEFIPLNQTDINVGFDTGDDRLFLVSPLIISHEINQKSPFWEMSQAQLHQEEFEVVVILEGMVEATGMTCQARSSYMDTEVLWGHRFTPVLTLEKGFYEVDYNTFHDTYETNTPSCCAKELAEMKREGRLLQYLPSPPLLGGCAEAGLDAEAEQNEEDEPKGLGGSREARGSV
# Assay: Measurement of human GIRK1/4 channel current by whole-cell patch clamp method (human GIRK1/4-expressing CHO cell line)
# Assay type: cell-based
# Settings: whole-cell patch clamp, human GIRK1/4-expressing CHO cells; step end current at −120 mV; test compound 0.1, 1, 10 μM; read-out: GIRK¼ IC50
# Procedure: (2) Production of CHO Cell Line Expressing Human GIRK1/4
# CHO cell lines stably expressing human GIRK1/4 channels were prepared in the following manner.
# Full-length human GIRK1 cDNA was cloned from HuH cell- and HeLa cell-derived cDNA libraries. Full-length GIRK4 cDNA was amplified from a human heart cDNA library (produced by Clontech Laboratories, Inc.) by PCR using synthetic primers shown in Table 1, and cloned into the Eco-RI restriction enzyme site of pCR-Blunt (produced by Invitrogen Corporation) or into the HincII site of pUC118 (produced by Takara Bio, Inc.).
# The obtained human GIRK1 and GIRK4 cDNA sequences correspond to known sequences (NCBI database: GIRK1 (NM_002239) and GIRK4 (NM_000890) respectively). The obtained GIRK1 and GIRK4 cDNA sequences were cloned into the Eco-RI restriction enzyme site of pCR-Blunt (available from Invitrogen Corporation) or into the HincII site of pUC118 (available from Takara Bio, Inc.). A GIRK4 expression vector was constructed by insertion into the BamHI-XhoI site of pcDNA5/FRT. A GIRK1 expression vector was constructed by insertion into the KpnI-XhoI site of pcDNA3.1(+) or pCAG_neo. FLP-IN-CHO cells (produced by Invitrogen Corporation) were transfected with human GIRK1 and GIRK4 expression vectors by using Lipofectamine 2000 (produced by Invitrogen Corporation) according to the protocol enclosed with the reagent or using an electronic induction method (“Nucleofector Kit-T”, produced by Amaxa). First, the cells transfected with the GIRK4 expression vector were cultured in a 10% serum-containing F12 medium (produced by Sigma) supplemented with 600 μg/ml of hygromycin in an incubator with 5% carbon dioxide at 37° C. Then the cells expressing GIRK4 were transfected with the GIRK1 expression vector and were cultured in 10% serum-containing F12 medium supplemented with 350 μg/ml of G418 and 600 μg/ml of hygromycin in an incubator with 5% carbon dioxide at 37° C. to select GIRK1/4 expressing cell lines. Cell populations whose growth was observed after about 2 weeks were isolated using cloning rings, and the obtained single colonies were proliferated. RNA was extracted from single colonies, and single-stranded cDNA was synthesized by a cDNA synthesis kit (produced by Invitrogen Corporation), and the amount of expression was quantified at the mRNA level by real-time PCR (Applied Biosystems, Ltd.). Finally, the expressed current was analyzed by patch clamp method described below. The cell lines expressing a current of 500 pA or more per cell were selected as channel-expressing cell lines for activity measurement by patch clamping method.
# (4) Measurement of Ion Channel Current by Patch Clamp Method (Human GIRK1/4-Expressing CHO-K1 Cell Line)
# An experiment was carried out using a patch clamp setup at room temperature (20 to 26° C.). A perfusion chamber having a diameter of 20 mm (flow rate: about 5 ml/min) was mounted on the stage of a phase-contrast inverted microscope (produced by Nikon Corporation) placed on a vibration isolation table. A poly-L-lysine (produced by Sigma)-coated coverslip (diameter: 15 mm, produced by Matsunami Glass Ind., Ltd.) on which human GIRK1/4-expressing cells were cultured was placed in the perfusion chamber.
# Hyperpolarizing stimulation pulses were applied and ionic current was recorded using a patch clamp amplifier (EPC-7 or EPC-7 PLUS, manufactured by HEKA) and a personal computer (manufactured by IBM Corp.) in which software for data acquisition and analysis of ion channel current (PULSE 8.77, manufactured by HEKA) was installed. The current was measured in the whole-cell configuration of the patch-clamp technique. The tip (resistance: 2 to 4 MΩ) of a borosilicate glass pipette (produced by Sutter Instrument Co.) was gently placed on the cell membrane by using a three-dimensional mechanical micromanipulator (produced by Shoshin EM Corporation). […] Subsequently, stronger suction was applied to break the cell membrane. […]
row,IC50,Compound
1,5.2 µM,"CCN1C(=O)C(C)(C)C(=O)N(C)c2cc(OCCCN(CCn3ccc4occc4c3=O)Cc3cccnc3)ccc21 [Example 551, 1-ethyl-3,3,5-trimethyl-7-(3-{[2-(4-oxo-4H-furo[3,2-c]pyridin-5-yl)ethyl]pyridin-3-ylmethylamino}-propoxy)-1,5-dihydrobenzo[b][1,4]diazepine-2,4-dione]"
2,0.05 µM,"CCN1C(=O)C(C)(C)C(=O)N(C)c2cc(OCCCN(CCn3ccc4sccc4c3=O)Cc3cccnc3)ccc21 [Example 568, 1-ethyl-3,3,5-trimethyl-7-(3-{[2-(4-oxo-4H-thieno[3,2-c]pyridin-5-yl)ethyl]pyridin-3-ylmethylamino}-propoxy)-1,5-dihydrobenzo[b][1,4]diazepine-2,4-dione]"
3,0.5 µM,"CCN1C(=O)C(C)(C)C(=O)N(C)c2cc(OCCCN(CCn3ccc4occc4c3=O)Cc3cccnc3C)ccc21 [Example 575, 1-ethyl-3,3,5-trimethyl-7-(3-{(2-methylpyridin-3-ylmethyl)-[2-(4-oxo-4H-furo[3,2-c]pyridin-5-yl)ethyl]-amino}propoxy)-1,5-dihydrobenzo[b][1,4]diazepine-2,4-dione]"
4,0.79 µM,"CCN1C(=O)C(C)(C)C(=O)N(C)c2cc(OCCCN(CCn3ccc4sccc4c3=O)Cc3cccnc3C)ccc21 [Example 595, 1-ethyl-3,3,5-trimethyl-7-(3-{(2-methylpyridin-3-ylmethyl)-[2-(4-oxo-4H-thieno[3,2-c]pyridin-5-yl)ethyl]-amino}propoxy)-1,5-dihydrobenzo[b][1,4]diazepine-2,4-dione]"
5,2.5 µM,"CCN1C(=O)C(C)(C)C(=O)N(C)c2cc(OCCCN(CCc3cccnc3)S(=O)(=O)c3ccccc3)ccc21 [Example 628, N-[3-(1-ethyl-3,3,5-trimethyl-2,4-dioxo-2,3,4,5-tetrahydro-1H-benzo[b][1,4]diazepin-7-yloxy)propyl]-N-(2-pyridin-3-ylethyl)benzenesulfonamide hydrochloride]"
6,0.17 µM,"CCN1C(=O)C(C)(C)C(=O)N(C)c2cc(OCCCN(CCn3ccc4occc4c3=O)Cc3ccc(C)nc3C)ccc21 [Example 629, 7-(3-{(2,6-dimethylpyridin-3-ylmethyl)-[2-(4-oxo-4H-furo[3,2-c]pyridin-5-yl)ethyl]amino}propoxy)-1-ethyl-3,3,5-trimethyl-1,5-dihydrobenzo[b][1,4]diazepine-2,4-dione dihydrochloride]"
7,0.49 µM,"CCN1C(=O)C(C)(C)C(=O)N(C)c2cc(OCCCN(CCn3ccc4ccccc4c3=O)S(=O)(=O)c3ccccc3)ccc21 [Example 634, N-[3-(1-ethyl-3,3,5-trimethyl-2,4-dioxo-2,3,4,5-tetrahydro-1H-benzo[b][1,4]diazepin-7-yloxy)propyl]-N-[2-(1-oxo-1H-isoquinolin-2-yl)ethyl]benzenesulfonamide]"

# Further lines, the compound ahead of its results:
row,Compound,IC50
1,"CCN1C(=O)C(C)(C)C(=O)N(C)c2cc(OCCCN(CCn3ccc4oc(C)cc4c3=O)Cc3ccncc3)ccc21 [Example 464, 1-ethyl-3,3,5-trimethyl-7-(3-{[2-(2-methyl-4-oxo-4H-furo[3,2-c]pyridin-5-yl)ethyl]pyridin-4-ylmethylamino}propoxy)-1,5-dihydrobenzo[b][1,4]diazepine-2,4-dione dihydrochloride]",3.2 µM
2,"CCN1C(=O)C(C)(C)C(=O)N(C)c2cc(OCCCN(CCn3ccc4oc(C)cc4c3=O)Cc3cnccc3C)ccc21 [Example 573, 1-ethyl-3,3,5-trimethyl-7-{3-[[2-(2-methyl-4-oxo-4H-furo[3,2-c]pyridin-5-yl)ethyl]-(4-methylpyridin-3-ylmethyl)amino]propoxy}-1,5-dihydrobenzo[b][1,4]diazepine-2,4-dione]",1.5 µM
3,"CCN1C(=O)C(C)(C)C(=O)N(C)c2cc(OCCCN(CCn3ccc4occc4c3=O)Cc3cnccc3C)ccc21 [Example 590, 1-ethyl-3,3,5-trimethyl-7-(3-{(4-methylpyridin-3-ylmethyl)-[2-(4-oxo-4H-furo[3,2-c]pyridin-5-yl)ethyl]-amino}propoxy)-1,5-dihydrobenzo[b][1,4]diazepine-2,4-dione]",2.4 µM
4,"CCCc1ncccc1CN(CCCOc1ccc2c(c1)N(C)C(=O)C(C)(C)C(=O)N2CC)CCn1ccc2oc(C)cc2c1=O [Example 611, 1-ethyl-3,3,5-trimethyl-7-{3-[[2-(2-methyl-4-oxo-4H-furo[3,2-c]pyridin-5-yl)ethyl]-(2-propylpyridin-3-ylmethyl)amino]propoxy}-1,5-dihydrobenzo[b][1,4]diazepine-2,4-dione dihydrochloride]",0.37 µM
5,"CCN1C(=O)C(C)(C)C(=O)N(C)c2cc(OCCCN(CCc3cccnc3)C(=O)c3ccccc3)ccc21 [Example 633, N-[3-(1-ethyl-3,3,5-trimethyl-2,4-dioxo-2,3,4,5-tetrahydro-1H-benzo[b][1,4]diazepin-7-yloxy)propyl]-N-(2-pyridin-3-ylethyl)benzamide hydrochloride]",8.4 µM

# From patent US8664217B2, “Benzodiazepine compound and pharmaceutical composition” (Otsuka Pharmaceutical Co., Ltd., priority 2008, dated 2014)
